In patent US8236510B2, “Protein showing enhanced expression in cancer cells” (Agensys, Inc., priority 1999, dated 2012):
Like-named read-outs stand apart in the source and are kept apart here.

How the values were obtained:
[1] = system: PC3-101P3A11 cells; assay: Proliferation of PC3-101P3A11 and PC3-neo cells; assay type: cell-based, human; conditions: PC3-101P3A11 cells, dose dependent
Description: Since adenylate cyclase activity modulates intracellular levels of cAMP and induce downstream signaling events such as activation of protein kinase A, calcium and ERK MAPK signaling (Pierce K. L., et al, Oncogene. 2001, 20: 1532), we determined that PTX, an inhibitor of adenylate cyclase signaling, prevents 101P3A11-mediated ERK phosphorylation along with inhibiting cAMP accumulation (FIG. 33 and FIG. 34). PC3-neo and PC3-101P3A11 cells were grown overnight in 0.1% FBS in media alone or in the presence of pertussis toxin (PTX). Cells were stimulated with 0.1% or 10% FBS (FIG. 33) or 10% FBS, EGF or GRP (FIG. 34). Cells were lysed and analyzed by Western blotting using anti-Phospho-ERK mAb. Expression of 101P3A11 mediated ERK phosphorylation by 10% FBS in PC3 cells, which was inhibited by PTX (FIG. 33 and FIG. 34).
GPCR transmit their signal by activating trimeric G proteins. Once GPCRs are activated, the associated Ga subunit binds GTP, dissociates from the receptor and participates in downstream signaling events (Schild, D., and Restrepo, D. Physiol Rev. 1998, 78:429-66). In order to determine that inhibition of Ga subunits has an effect on 101P3A11 mediated cell growth, the effect of two Ga inhibitors on the proliferation of 3T3-101P3A11 cells was investigated. Control 3T3 and 3T3-101P3A11 cells were grown in the presence or absence of suramin or its derivative NF 449 (Sigma). Cells were analyzed for proliferation 72 hours later (FIG. 35). The experiment was performed in triplicate. […] This response was 101P3A11 specific as suramin and NF449 had no effect on the proliferation of control 3T3 cells. Similarly, inhibition of G protein activation by suramin and NF449 in PC3 cells inhibits the proliferation of PC3-101P3A11 cells grown in 5% FBS (Figure M4). […] This ERK phosohorylation and activation was inhibited by suramin and NF449 in PC3-101P3A11 and 3T3-101P3A11 cells. ERK phosphorylation was inhibited in a dose dependent manner in PC3-101P3A11 cells treated with suramin. […]

[2] = system: cAMP accumulation in PC3-101P3A11 cells; assay: cAMP accumulation in PC3 and PC3-101P3A11 cells (enzyme immunoassay); assay type: cell-based, human
Description: Olfactory receptors are known to regulate biological responses by activating adenylate cyclase. In order to confirm that 101P3A11 functions as a GPCR and mediates the activation of adenylate cyclase, cAMP accumulation in PC3 and PC3-101P3A11 cells were compared (FIG. 32). Control PC3 and PC3-101P3A11 cells were grown in a low concentration of fetal bovine serum (FBS) for 14 hrs in the presence or absence of pertussis toxin (PTX). The cells were stimulated with 0.1% or 10% FBS, washed in PBS and lysed using a lysis buffer provided by Amersham Pharmacia. Intracellular concentration of cAMP was measured using a commercially available enzyme immunoassay (EIA) according to the manufacturer's recommendations (Amersham Pharmacia). Each assay was performed in duplicate. Calculations of cAMP concentrations were based on OD450 of the standard curve. Expression of 101P3A11 induced a four-fold increase in cAMP accumulation in the absence of stimulation. Treatment with 10% FBS further enhanced cAMP accumulation in PC3-101P3A11 cells to nearly seven-fold over control PC3-neo cells. 101P3A11 mediated cAMP accumulation was inhibited by PTX.
In order to confirm that anti-101P3A11 pAb has a detectable effect on cAMP accumulation, PC3 and PC3-101P3A11 cells were grown in 0.1% FBS and treated with anti-101P3A11 pAb. Cells were analyzed for cAMP content as described in FIG. 32. […]

With pertussis toxin [PTX] the inhibition of proliferation [1] was “inhibited”, the “inhibition of 101P3A11 mediated cAMP accumulation” value [2] was “partially inhibited” and the “inhibition of 101P3A11 mediated cAMP accumulation” value ([2]; listed as pertussis toxin) was “inhibited”.
